In EP2474542A1 (priority 2010, dated 2012):
Where two headings read alike, the source gives them in different places.

Key:
[1] = logP determination (HPLC/MS characterisation, HCOOH); assay type: physicochemical
Phytophthora infestans = assay type: in vivo; conditions: preventive, young tomato plants sprayed, 100ppm of active ingredient, evaluated 7 days after the inoculation; 0% = untreated control, 100% = no disease
[2] = HCOOH, HPLC/MS, read-out: logP(HCOOH)

Row | Structure (SMILES) | chromatographic logP [1, 2] | chromatographic logP ([1]; Table 1, read-out: log P) | Eff.% (Phytophthora infestans) [%]
1 | Cn1nnnc1/C(=N\OCc1csc(N=C=O)n1)c1ccccc1 [(Z)-N-[(2-isocyanato-1,3-thiazol-4-yl)methoxy]-1-(1-methyl-1H-tetrazol-5-yl)-1-phenylmethanimine] | 3.13 |  | 
2 | Cn1nnnc1/C(=N\OCc1csc(NC(=O)O/N=C/c2ccccc2)n1)c1ccccc1 [Example 1, ({4-[({[(Z)-(1-methyl-1H-tetrazol-5-yl)(phenyl)methylene]amino}oxy)methyl]-1,3-thiazol-2-yl}amino)({[(E)-phenylmethylene]amino}oxy)methanone] | 3.39 | 3.13 | 95
